Assay results published in patent publication US10975091B2, “Pyridine derivative” (Astellas Pharma Inc., priority 2014, dated 2021).

Test system: continuously hydrated rats
Assay: Antidiuresis test in continuously hydrated rats with additional water loading (oral administration)
Format: in vivo, rat
Details: for urine production after additional water loads: groups with additional water loads (15 mL/kg at two and three hours after administration); for urine production after additional water loads / urine production: FIG. 1; for urine production: groups without additional water loads, two hours after administration, maintained until four hours; for change in plasma sodium level (in words): three hours and four hours after administration, additional water loads
Protocol: Male Wistar rats were used in the test. Initially, water load with 15 mL/kg of distilled water was forcedly administered to the rats. Every 30 minutes after loading water, urine volume collected during 30 minutes was measured and distilled water was forcedly administered to the rats in an amount equal to the urine volume excreted during the last 30 minutes. This water load procedure was repeated to the termination of the test to maintain the diuretic state. […] The individual groups were further divided into two subgroups, and additional distilled water of 15 mL/kg load was forcedly administered to one of the subgroups two times, i.e. at two hours and three hours after the administration. For comparison, the Vehicle group administered only with the vehicle was also subjected to the additional administrations of water load. Blood was collected from a half of the rats in each group subjected to additional administrations of water load, at three hours after the administration (immediately before the second additional water load) and from the other half at four hours after the administration, and plasma sodium levels were measured with an automatic electrolyte analyzer to determine the plasma sodium levels at three hours and four hours after the administration, respectively (each group consisted of seven to eight rats). Changes in the urine volume in individual groups are shown in FIG. 1, and the plasma sodium levels of the group administered with additional water loads are shown in Table 4.

SMILES | urine production after additional water loads | urine production | change in plasma sodium level (in words)
CC(C)C[C@H](N)[C@](O)(Cc1cc(O[C@H]2CC[C@H](C)CC2)ccn1)C(=O)O (relative stereo) [EX-a] | resumed after administration of the additional water loads | almost stopped | slightly decreased
CCSC[C@H](N)[C@](O)(Cc1cc(O[C@H]2CC[C@H](C)CC2)ccn1)C(=O)O [EX-b, (2R,3R)-3-amino-4-(ethylsulfanyl)-2-hydroxy-2-({4-[(trans-4-methylcyclohexyl)oxy]pyridin-2-yl}methyl)butanoic acid] | resumed after administration of the additional water loads | almost stopped | slightly decreased
NC(=O)CC[C@@H]1NC(=O)[C@H](Cc2ccccc2)NC(=O)[C@H](Cc2ccc(O)cc2)NC(=O)CCSSC[C@@H](C(=O)N2CCC[C@H]2C(=O)N[C@H](CCCN=C(N)N)C(=O)NCC(N)=O)NC(=O)[C@H](CC(N)=O)NC1=O [dDAVP, Desmopressin, reference compound] | urine production was not resumed | almost stopped | more significant decreases
